“And” between values parts separate entries of the source, which are not always exact repeats. Identical values can stand only once. Like-named read-outs stand apart in the source and are kept apart here.
Assays:
[1] = Charge class Q, dominant calculated charge state at pH 7.4; format: physicochemical
[2] = In combo PAMPA-BBB model, calculated log Po in situ
[3] = PAMPA; for Pm^7.4: pH 7.4
[4] = cited from earlier work
[5] = mouse, in vivo; cited from earlier work
[6] = in vivo; cited from earlier work
[7] = PAMPA; for Pm^7.4: pH 7.4; remark: listed apart in the source
[8] = dominant calculated concentration fraction of the drug in a charge state
[9] = difference observed minus calculated, external set, no efflux inhibition

SMILES | Q (charge class) [1, 8] | obs–calc (log Po^in situ) ([2]; no efflux inhibition) | log PABL [3] | log Po [3] | log Ppara [3] | Pm^7.4 [3] | pKa (physchem) | obs–calc (log Po^in situ) [2, 9] | further results
COc1ccc(CCN2CCC(Nc3nc4ccccc4n3Cc3ccc(F)cc3)CC2)cc1 [Astemizole] | + | −1.3 | −3.54 | −1.39 | −6.54 | 2422 |  |  | obs–calc (log Po^in situ) ([2]; efflux inhibition mdr1a(−/−)): −1.2; pKa ([4]; ref [46]): 8.60; pKa ([4]; second pKa column, ref [46]): 5.84
CNCC[C@@H](Oc1ccccc1C)c1ccccc1 [Atomoxetine] | + | 0.5 | −3.01 | −1.83 | −6.10 |  | 9.67 |  | 
COc1cccc2c1C(=O)c1c(O)c3c(c(O)c1C2=O)C[C@@](O)(C(C)=O)C[C@@H]3O[C@H]1C[C@H](N)[C@H](O)[C@H](C)O1 [Daunomycin] |  |  | −4.38 | −2.71 | −6.91 | 10 |  |  | Q (charge class) [1]: +; obs–calc (log Po^in situ) [2]: 0.8; pKa ([4]; ref [39]): 12.00; pKa ([4]; second pKa column, ref [39]): 9.70
O=c1[nH]c2ccccc2n1CCCN1CCC(n2c(=O)[nH]c3cc(Cl)ccc32)CC1 [Domperidone] | + |  |  |  |  |  | 9.38 |  | PS [5]: 16 10^−4 mLg^−1s^−1; PS [6]: 5 10^−4 mLg^−1s^−1; log PS [6]: −3.29
CN(C)CCC=C1c2ccccc2COc2ccccc21 [Doxepin] | + | 0.3 | −3.13 | −1.60 | −6.47 | 223 |  |  | pKa ([4]; ref [11]): 9.45
CCC1(C)CC(=O)NC1=O (centres unmarked) [Ethosuximide] | 0 | 0.2 |  | −5.83 | −6.87 | 1.5 | 9.18 |  | 
OCCN1CCN(CCCN2c3ccccc3Sc3ccc(C(F)(F)F)cc32)CC1 [Fluphenazine] | + | −1.0 | −3.24 | −2.36 | −5.54 | 1326 | 7.76 |  | 
COc1ccc(Cl)cc1C(=O)NCCc1ccc(S(=O)(=O)NC(=O)NC2CCCCC2)cc1 [Glibenclamide] | − |  |  |  |  |  |  |  | Pm^7.4 [7]: 15
N[C@@H](Cc1ccc(O)c(O)c1)C(=O)O [L-DOPA] | ± |  | −4.47 | −7.81 |  | 0.01 |  | 0.7 and 0.9 | pKa ([4]; ref [39]): 8.77
Nc1nnc(-c2cccc(Cl)c2Cl)c(N)n1 [Lamotrigine] |  |  |  |  |  |  | 5.38 |  | 
CN1CCN(C2=Nc3ccccc3Oc3ccc(Cl)cc32)CC1 [Loxapine] |  |  |  |  |  | 829 | 7.78 |  | 
CNCCCC12CCC(c3ccccc31)c1ccccc12 [Maprotiline] | + | 0.2 | −3.21 | −0.56 | −5.51 | 311 |  |  | 
CN1CCN2c3ncccc3Cc3ccccc3C2C1 (centres unmarked) [Mirtazapine] | 0 | −0.2 | −3.37 | −2.61 | −5.87 | 579 | 7.91 |  | 
COc1ccc2c3c1O[C@H]1C(=O)CC[C@@]4(O)[C@@H](C2)N(C)CC[C@]314 [Oxycodone] |  |  |  |  |  |  | 9 |  | Q (charge class) [1]: +
CCCN1C[C@H](CSC)C[C@@H]2c3cccc4[nH]cc(c34)C[C@H]21 [Pergolide] | + | 0.4 | −3.25 | −1.45 | −6.20 | 315 | 9.45 |  | 
OCCN1CCN(CCCN2c3ccccc3Sc3ccc(Cl)cc32)CC1 [Perphenazine] | + |  | −3.42 | −1.66 | −5.64 | 1612 |  | −0.9 | 
NNCCc1ccccc1 [Phenelzine] | + |  | −4.58 | −2.20 | −6.86 | 2236 | 7.66 | −1.9 | 
O=C1NC(=O)C(c2ccccc2)(c2ccccc2)N1 [Phenytoin] | 0 | −0.4 and −0.3 and −0.2 | −4.51 | −4.34 | −6.93 | 41 |  |  | obs–calc (log Po^in situ) ([2]; efflux inhibition mdr1a(−/−)): −0.3
CCCN(CCC)S(=O)(=O)c1ccc(C(=O)O)cc1 [Probenecid] | − | −0.7 | −3.52 | −2.97 | −6.10 | 0.06 |  |  | obs–calc (log Po^in situ) ([2]; efflux inhibition mdr1a(−/−)): −0.6; pKa ([4]; ref [38]): 3.16
CC(=O)[C@H]1CC[C@H]2[C@@H]3CCC4=CC(=O)CC[C@]4(C)[C@H]3CC[C@]12C [Progesterone] | 0 |  | −3.25 | −3.58 | −6.20 | 263 |  | −0.6 | 
OCCOCCN1CCN(C2=Nc3ccccc3Sc3ccccc32)CC1 [Quetiapine] | 0 |  | −3.88 | −2.98 | −6.02 | 583 |  | 0.2 | pKa ([4]; ref [38]): 7.30; pKa ([4]; second pKa column, ref [38]): 2.27
CC(C)(C)NC(=O)[C@@H]1C[C@@H]2CCCC[C@@H]2CN1C[C@@H](O)[C@H](Cc1ccccc1)NC(=O)[C@H](CC(N)=O)NC(=O)c1ccc2ccccc2n1 [Saquinavir] | 0 |  |  |  |  |  |  | −0.1 | obs–calc (log Po^in situ) ([2]; efflux inhibition mdr1a(−/−)): 0.5; log Po [7]: −3.82; Pm^7.4 [7]: 114
CN[C@H]1CC[C@@H](c2ccc(Cl)c(Cl)c2)c2ccccc21 [Sertraline] | + |  |  |  |  |  | 9.2 |  | 
CNS(=O)(=O)Cc1ccc2[nH]cc(CCN(C)C)c2c1 [Sumatriptan] | + |  | −4.65 | −4.86 | −7.51 | 0.4 | 9.64 | 0.0 | 
Cn1cnc2c1c(=O)[nH]c(=O)n2C [Theobromine] | 0 |  | −4.45 | −8.00 | −6.94 | 0.01 |  | 1.1 | 
CSc1ccc2c(c1)N(CCC1CCCCN1C)c1ccccc1S2 (centres unmarked) [Thioridazine] | + | −0.8 | −2.84 | −1.27 | −6.23 | 1972 |  |  | pKa ([4]; ref [11]): 8.82
O=c1n(CCCN2CCN(c3cccc(Cl)c3)CC2)nc2ccccn12 [Trazodone] | 0 | 0.0 | −3.90 | −2.94 | −5.99 | 534 | 7.46 |  | 
CN1CCN(CCCN2c3ccccc3Sc3ccc(C(F)(F)F)cc32)CC1 [Trifluoperazine] | + |  | −3.32 | −1.96 | −5.94 | 1442 | 8.22 | −1.1 | 
